Laboratory results as given in US8012970B2, “Derivatives of 1-{[1,5-bis(4-chlorophenyl)-2-methyl-1H-pyrrol-3-yl]methyl}-4-methylpiperazine, synthesis process and uses thereof” (priority 2005, dated 2011).
≈ marks a conversion by molar mass, not a printed value. Where two headings read alike, the source gives them in different places.

Assays:
Type in all cases: cell-based
VERO cells = experiment: Cytotoxicity on Vero cell monolayers (MNTD50); settings: maximum 50% non-toxic dose, 5 days
Experimental: The cytotoxicity was evaluated on Vero cell monolayers (ICN-Flow). They were inoculated in 6-well plates each containing 9×10^4 cells and incubated in DMEM with 5% FCS for 24 h at 37° C. in a 5% CO2 incubator. After 24 h of culture, the medium was changed and a new medium containing decreasing doses of the substances under study was added.
After 5 days, the cells were trypsinized and counted in a Neubauer chamber under a light microscope. All the tests were done in triplicate. The maximum 50% non-toxic dose (MNTD50) was defined as the drug concentration that decreased cell multiplication less than 50% with respect to the control.

M. tuberculosis 103471 = experiment: Antimycobacterial activity, MIC in Middlebrook 7H9 broth (NCCLS procedure); settings: for MIC: Mycobacterium tuberculosis, 103471, read-out: M. tuberculosis 103471 MIC (μg/mL); for M. tuberculosis 103471 MIC: extracellular M. tuberculosis 103471
M. smegmatis 103599 = experiment: Antimycobacterial activity toward atypical mycobacteria, MIC in broth
M. marinum 6423 = experiment: as above
M. avium 103317 = experiment: as above
[1] = system: intracellular M. tuberculosis; experiment: Inhibitory activity on intramacrophagic mycobacteria in U937 cells differentiated into macrophages; settings: Mycobacterium tuberculosis, read-out: MIC (μg/mL) Inhibition of intramacrophagic mycobacteria
Experimental: Inhibitory Activity of 6e and 7c on Intramacrophagic Mycobacteria.
The bactericidal activity of such compounds on intracellular mycobacteria was studied on U937 cells (INC-FLOW), a human hystiocytic cell line. Cells were differentiated into macrophages with 20 ng/mL of phorbol myristate acetate (PMA, Sigma) and grown in RPMI 1640 medium with 10% fetal calf serum.

[2] = Mycolicibacterium smegmatis, 103599; read-out: MIC (μg/mL) M. smegmatis 103599
[3] = Mycobacterium marinum, 6423; read-out: MIC (μg/mL) M. marinum 6423
[4] = Mycobacterium avium, 103317; read-out: MIC (μg/mL) M. avium 103317

SMILES | MNTD50 (μg/mL) VERO cells (VERO cells) | MIC (M. tuberculosis 103471) | MIC (M. smegmatis 103599; [2]) | MIC (M. marinum 6423; [3]) | MIC (M. avium 103317; [4]) | M. tuberculosis 103471 MIC (M. tuberculosis 103471) | MIC (μg/mL) M. smegmatis 103599 (M. smegmatis 103599) | MIC (μg/mL) M. marinum 6423 (M. marinum 6423) | MIC (μg/mL) M. avium 103317 (M. avium 103317) | MIC [1] | MIC (M. smegmatis 103599; Mycolicibacterium smegmatis, 103599, read-out: MIC (μg/mL) M. smegmatis 103599) | MIC (M. marinum 6423; Mycobacterium marinum, 6423, read-out: MIC (μg/mL) M. marinum 6423) | MIC (M. avium 103317; Mycobacterium avium, 103317, read-out: MIC (μg/mL) M. avium 103317)
Cc1c(CN2CCN(C)CC2)cc(-c2ccc(Cl)cc2)n1-c1ccc(Cl)cc1 [BM212, 1-{[1,5-bis(4-chlorophenyl)-2-methyl-1H-pyrrol-3-yl]methyl}-4-methylpiperazine] | 4 µg/mL | 0.7 µg/mL (≈ 1.69 µM) | 25 µg/mL (≈ 60.3 µM) | 100 µg/mL (≈ 241 µM) | 0.4 µg/mL (≈ 0.965 µM) |  |  |  |  |  |  |  | 
Cc1c(CN2CCSCC2)cc(-c2ccccc2Cl)n1-c1ccc(F)cc1 [Compound 6a] | 4 µg/mL |  |  |  |  | 4 µg/mL | >16 µg/mL | >16 µg/mL | 16 µg/mL (≈ 39.9 µM) |  |  |  | 
Cc1c(CN2CCN(C)CC2)cc(-c2ccccc2Cl)n1-c1ccc(F)cc1 [Compound 6b] | 2 µg/mL |  |  |  |  | 8 µg/mL | >16 µg/mL | >16 µg/mL | 16 µg/mL (≈ 40.2 µM) |  |  |  | 
Cc1c(CN2CCSCC2)cc(-c2ccccc2F)n1-c1ccc(F)cc1 [Compound 6c] | 16 µg/mL |  |  |  |  | 0.5 µg/mL | >16 µg/mL | >16 µg/mL | 16 µg/mL (≈ 41.6 µM) |  |  |  | 
Cc1c(CN2CCN(C)CC2)cc(-c2ccccc2F)n1-c1ccc(F)cc1 [Compound 6d] | 4 µg/mL |  |  |  |  | 16 µg/mL | >16 µg/mL | >16 µg/mL | >16 µg/mL |  |  |  | 
Cc1ccc(-c2cc(CN3CCSCC3)c(C)n2-c2ccc(F)cc2)cc1 [Compound 6e, N-(p-fluorophenyl)-2-methyl-3-thiomorpholinomethyl-5-(p-methylphenyl)pyrrole] | 64 µg/mL | 0.4 µg/mL (≈ 1.05 µM) | 16 µg/mL (≈ 42 µM) | 8 µg/mL (≈ 21 µM) | 8 µg/mL (≈ 21 µM) |  |  |  |  | 3 µg/mL (≈ 7.88 µM) |  |  | 
Cc1ccc(-c2cc(CN3CCN(C)CC3)c(C)n2-c2ccc(F)cc2)cc1 [Compound 6f] | 8 µg/mL |  |  |  |  | 4 µg/mL | 8 µg/mL (≈ 21.2 µM) | >16 µg/mL | 4 µg/mL (≈ 10.6 µM) |  |  |  | 
Cc1c(CN2CCSCC2)cc(-c2ccc(Cl)cc2Cl)n1-c1ccc(F)cc1 [Compound 6g] | 64 µg/mL |  |  |  |  | 2 µg/mL | >16 µg/mL | >16 µg/mL | 4 µg/mL (≈ 9.19 µM) |  |  |  | 
Cc1c(CN2CCN(C)CC2)cc(-c2ccc(Cl)cc2Cl)n1-c1ccc(F)cc1 [Compound 6h] | 16 µg/mL |  |  |  |  | 8 µg/mL | >16 µg/mL | >16 µg/mL | 2 µg/mL (≈ 4.63 µM) |  |  |  | 
Cc1c(CN2CCSCC2)cc(-c2ccc(F)cc2F)n1-c1ccc(F)cc1 [Compound 6i] | 16 µg/mL |  |  |  |  | 0.5 µg/mL | >16 µg/mL | 16 µg/mL (≈ 39.8 µM) | 16 µg/mL (≈ 39.8 µM) |  |  |  | 
Cc1c(CN2CCN(C)CC2)cc(-c2ccc(F)cc2F)n1-c1ccc(F)cc1 [Compound 6j] | 8 µg/mL |  |  |  |  | 4 µg/mL | >16 µg/mL | >16 µg/mL | 16 µg/mL (≈ 40.1 µM) |  |  |  | 
Cc1c(CN2CCSCC2)cc(-c2cccc3ccccc23)n1-c1ccc(F)cc1 [Compound 6k] | >128 µg/mL |  |  |  |  | >16 µg/mL | >16 µg/mL | >16 µg/mL | >16 µg/mL |  |  |  | 
Cc1c(CN2CCN(C)CC2)cc(-c2cccc3ccccc23)n1-c1ccc(F)cc1 [Compound 6l] | 4 µg/mL |  |  |  |  | 16 µg/mL | >16 µg/mL | 16 µg/mL (≈ 38.7 µM) | 8 µg/mL (≈ 19.3 µM) |  |  |  | 
Cc1c(CN2CCSCC2)cc(-c2ccc(F)cc2)n1-c1ccccc1Cl [Compound 7a] | 8 µg/mL |  |  |  |  | 2 µg/mL | >16 µg/mL | >16 µg/mL | >16 µg/mL |  |  |  | 
Cc1c(CN2CCN(C)CC2)cc(-c2ccc(F)cc2)n1-c1ccccc1Cl [Compound 7b] | 8 µg/mL |  |  |  |  | 4 µg/mL | >16 µg/mL | >16 µg/mL | >16 µg/mL |  |  |  | 
Cc1c(CN2CCSCC2)cc(-c2ccc(F)cc2)n1-c1ccccc1F [Compound 7c, N-(o-fluorophenyl)-2-methyl-3-thiomorpholinomethyl-5-(p-fluorophenyl)pyrrole] | 8 µg/mL | 0.5 µg/mL (≈ 1.3 µM) | 8 µg/mL (≈ 20.8 µM) | > 16 µg/mL | 8 µg/mL (≈ 20.8 µM) |  |  |  |  | 3 µg/mL (≈ 7.8 µM) |  |  | 
Cc1c(CN2CCN(C)CC2)cc(-c2ccc(F)cc2)n1-c1ccccc1F [Compound 7d] | 8 µg/mL |  |  |  |  | 8 µg/mL | 0.3 µg/mL (≈ 0.786 µM) | >16 µg/mL | 16 µg/mL (≈ 41.9 µM) |  |  |  | 
Cc1ccc(-n2c(-c3ccc(F)cc3)cc(CN3CCSCC3)c2C)cc1 [Compound 7e] | 8 µg/mL |  |  |  |  | 4 µg/mL | 16 µg/mL (≈ 42 µM) | 8 µg/mL (≈ 21 µM) | 8 µg/mL (≈ 21 µM) |  |  |  | 
Cc1ccc(-n2c(-c3ccc(F)cc3)cc(CN3CCN(C)CC3)c2C)cc1 [Compound 7f] | 8 µg/mL |  |  |  |  | 16 µg/mL | >16 µg/mL | 8 µg/mL (≈ 21.2 µM) | 16 µg/mL (≈ 42.4 µM) |  |  |  | 
Cc1c(CN2CCSCC2)cc(-c2ccc(F)cc2)n1-c1ccc(Cl)cc1Cl [Compound 7g] | 4 µg/mL |  |  |  |  | 1 µg/mL | 16 µg/mL (≈ 36.7 µM) | 8 µg/mL (≈ 18.4 µM) | 2 µg/mL (≈ 4.59 µM) |  |  |  | 
Cc1c(CN2CCN(C)CC2)cc(-c2ccc(F)cc2)n1-c1ccc(Cl)cc1Cl [Compound 7h] | 2 µg/mL |  |  |  |  | 4 µg/mL | >16 µg/mL | 8 µg/mL (≈ 18.5 µM) | 4 µg/mL (≈ 9.25 µM) |  |  |  | 
Cc1c(CN2CCSCC2)cc(-c2ccc(F)cc2)n1-c1ccc(F)cc1F [Compound 7i] | 16 µg/mL |  |  |  |  | 2 µg/mL | >16 µg/mL | 16 µg/mL (≈ 39.8 µM) | 16 µg/mL (≈ 39.8 µM) |  |  |  | 
Cc1c(CN2CCN(C)CC2)cc(-c2ccc(F)cc2)n1-c1ccc(F)cc1F [Compound 7j] | 16 µg/mL |  |  |  |  | 16 µg/mL | >16 µg/mL | 16 µg/mL (≈ 40.1 µM) | 16 µg/mL (≈ 40.1 µM) |  |  |  | 
Cc1c(CN2CCSCC2)cc(-c2ccc(F)cc2)n1-c1cccc2ccccc12 [Compound 7k] | 2 µg/mL |  |  |  |  | 4 µg/mL | >16 µg/mL | 16 µg/mL (≈ 38.4 µM) | 8 µg/mL (≈ 19.2 µM) |  |  |  | 
Cc1c(CN2CCN(C)CC2)cc(-c2ccc(F)cc2)n1-c1cccc2ccccc12 [Compound 7l] | 4 µg/mL |  |  |  |  | 4 µg/mL | >16 µg/mL | 8 µg/mL (≈ 19.3 µM) | 8 µg/mL (≈ 19.3 µM) |  |  |  | 
NNC(=O)c1ccncc1 [Isoniazid, reference compound] | 32 µg/mL | 0.25 µg/mL (≈ 1.82 µM) |  |  |  |  |  |  |  |  | 64 µg/mL (≈ 467 µM) | 16 µg/mL (≈ 117 µM) | 32 µg/mL (≈ 233 µM)
CO[C@H]1/C=C/O[C@@]2(C)Oc3c(C)c(O)c4c(O)c(c(/C=N/N5CCN(C)CC5)c(O)c4c3C2=O)NC(=O)/C(C)=C\C=C\[C@H](C)[C@H](O)[C@@H](C)[C@@H](O)[C@@H](C)[C@H](OC(C)=O)[C@@H]1C [Rifampin, reference compound] | 64 µg/mL | 0.3 µg/mL (≈ 0.365 µM) | 32 µg/mL (≈ 38.9 µM) | 0.6 µg/mL (≈ 0.729 µM) | 0.3 µg/mL (≈ 0.365 µM) | 0.3 µg/mL |  |  |  | 3 µg/mL (≈ 3.65 µM) |  |  | 
[H]/N=C(/N)N[C@H]1[C@H](O)[C@@H](O)[C@H](O[C@@H]2O[C@@H](C)[C@](O)(C=O)[C@H]2O[C@@H]2O[C@@H](CO)[C@H](O)[C@@H](O)[C@@H]2NC)[C@@H](N/C(N)=N\[H])[C@@H]1O [Streptomycin, reference compound] | >64 µg/mL | 0.5 µg/mL (≈ 0.86 µM) | 8 µg/mL (≈ 13.8 µM) | 32 µg/mL (≈ 55 µM) | 8 µg/mL (≈ 13.8 µM) |  |  |  |  |  |  |  | 
